What was measured:
[1] = Lipophilicity, logP of the compound; assay type: physicochemical; conditions: octanol/water
[2] = tested on: Mus musculus; assay: Anesthetic activity in mouse assessed as concentration required to induce hypnotic effect; assay type: functional, organism-based
[3] = Toxicity in mouse assessed as lethal dose; conditions: in vivo
[4] = Therapeutic index, ratio of LD50 for toxicity in mouse to HD50 for anesthetic activity in mouse; assay type: organism-based; conditions: in vivo, read-out: TI
[5] = target: GABA-A receptor; anion channel (Homo sapiens) (UniProt P14867+P47870+P18507+P28472+P48169+Q99928+Q9UN88+P34903+O00591+O14764+Q8N1C3+P18505+P78334+P47869+P31644+Q16445); assay: Inhibition of GABAA receptor (unknown origin) at 50 uM by radioligand receptor binding assay relative to control; assay type: protein-complex assay
[6] = tested on: Mus musculus; assay: Anesthetic activity in mouse assessed as onset time; assay type: functional
[7] = tested on: Mus musculus; assay: Anesthetic activity in mouse assessed as time duration of loss of righting reflex; assay type: functional
[8] = tested on: Mus musculus; assay: Anesthetic activity in mouse assessed as time to walk at 2 times of HD50 concentration; assay type: functional
[9] = tested on: Rattus norvegicus; assay: Anesthetic activity in rat assessed as concentration required to induce hypnotic effect; assay type: functional, organism-based
[10] = Toxicity in rat assessed as lethal dose; conditions: in vivo
[11] = Therapeutic index, ratio of LD50 for toxicity in rat to HD50 for anesthetic activity in rat; conditions: read-out: TI
[12] = tested on: Oryctolagus cuniculus; assay: Anesthetic activity in rabbit assessed as concentration required to induce hypnotic effect; assay type: functional, organism-based
[13] = Toxicity in rabbit assessed as lethal dose; design: species or system Oryctolagus cuniculus; conditions: in vivo
[14] = Therapeutic index, ratio of LD50 for toxicity in rabbit to HD50 for anesthetic activity in rabbit; conditions: read-out: TI
[15] = tested on: Rattus norvegicus; assay: Anesthetic activity in rat assessed as onset time; assay type: functional
[16] = tested on: Rattus norvegicus; assay: Anesthetic activity in rat assessed as time duration of loss of righting reflex; assay type: functional
[17] = tested on: Rattus norvegicus; assay: Anesthetic activity in rat assessed as time to walk at 2 times of HD50 concentration; assay type: functional
[18] = tested on: Oryctolagus cuniculus; assay: Anesthetic activity in rabbit assessed as onset time; assay type: functional
[19] = tested on: Oryctolagus cuniculus; assay: Anesthetic activity in rabbit assessed as time duration of loss of righting reflex; assay type: functional
[20] = tested on: Oryctolagus cuniculus; assay: Anesthetic activity in rabbit assessed as time to walk at 2 times of HD50 concentration; assay type: functional
[21] = target: Sigma non-opioid intracellular receptor 1 (Homo sapiens) (UniProt Q99720); assay: Inhibition of sigma 1 receptor (unknown origin) at 50 uM by radioligand receptor binding assay relative to control
Sequence of Sigma non-opioid intracellular receptor 1 (Homo sapiens) (Q99720 whole entry): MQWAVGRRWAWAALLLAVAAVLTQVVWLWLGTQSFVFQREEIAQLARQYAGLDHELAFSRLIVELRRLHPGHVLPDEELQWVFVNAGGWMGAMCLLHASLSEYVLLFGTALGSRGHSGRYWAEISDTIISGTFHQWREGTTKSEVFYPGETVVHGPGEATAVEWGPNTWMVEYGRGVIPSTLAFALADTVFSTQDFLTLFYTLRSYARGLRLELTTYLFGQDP

[22] = target: Sigma intracellular receptor 2 (Homo sapiens) (UniProt Q5BJF2); assay: Inhibition of sigma 2 receptor (unknown origin) at 50 uM by radioligand receptor binding assay relative to control
Sequence of Sigma intracellular receptor 2 (Homo sapiens) (Q5BJF2 whole entry): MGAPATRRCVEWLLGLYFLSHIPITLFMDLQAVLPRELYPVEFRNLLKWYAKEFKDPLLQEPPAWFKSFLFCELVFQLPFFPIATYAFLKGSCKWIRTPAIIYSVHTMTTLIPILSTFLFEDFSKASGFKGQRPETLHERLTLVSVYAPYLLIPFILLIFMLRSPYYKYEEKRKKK

[23] = target: D(2) dopamine receptor (Homo sapiens) (UniProt P14416); assay: Inhibition of D2 receptor (unknown origin) at 50 uM by radioligand receptor binding assay relative to control
Sequence of D(2) dopamine receptor (Homo sapiens) (P14416 whole entry): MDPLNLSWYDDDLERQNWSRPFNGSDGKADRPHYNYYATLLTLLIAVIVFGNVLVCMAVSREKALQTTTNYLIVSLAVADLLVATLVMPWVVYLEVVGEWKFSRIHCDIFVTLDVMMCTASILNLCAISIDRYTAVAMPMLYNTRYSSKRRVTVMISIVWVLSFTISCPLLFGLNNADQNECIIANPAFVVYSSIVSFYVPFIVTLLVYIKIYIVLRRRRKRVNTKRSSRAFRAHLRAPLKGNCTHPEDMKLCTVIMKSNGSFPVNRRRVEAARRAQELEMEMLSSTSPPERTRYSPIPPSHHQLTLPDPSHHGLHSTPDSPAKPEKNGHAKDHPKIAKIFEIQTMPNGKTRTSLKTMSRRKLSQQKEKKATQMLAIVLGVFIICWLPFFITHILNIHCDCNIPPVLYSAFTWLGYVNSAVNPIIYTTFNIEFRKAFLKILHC

[24] = target: D(3) dopamine receptor (Homo sapiens) (UniProt P35462); assay: Inhibition of D3 receptor (unknown origin) at 50 uM by radioligand receptor binding assay relative to control
Sequence of D(3) dopamine receptor (Homo sapiens) (P35462 whole entry): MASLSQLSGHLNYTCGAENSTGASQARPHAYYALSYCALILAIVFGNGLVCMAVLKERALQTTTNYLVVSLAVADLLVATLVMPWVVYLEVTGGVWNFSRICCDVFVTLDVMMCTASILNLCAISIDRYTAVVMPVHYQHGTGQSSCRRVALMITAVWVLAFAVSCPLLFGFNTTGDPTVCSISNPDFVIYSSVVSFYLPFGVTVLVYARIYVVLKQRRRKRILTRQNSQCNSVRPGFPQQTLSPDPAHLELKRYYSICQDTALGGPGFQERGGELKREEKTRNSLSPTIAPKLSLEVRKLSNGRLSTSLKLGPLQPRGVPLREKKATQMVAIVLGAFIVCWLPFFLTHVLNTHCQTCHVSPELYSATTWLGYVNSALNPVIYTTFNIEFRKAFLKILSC

[25] = target: Mu-type opioid receptor (Homo sapiens) (UniProt P35372); assay: Inhibition of mu opioid receptor (unknown origin) at 50 uM by radioligand receptor binding assay relative to control
Sequence of Mu-type opioid receptor (Homo sapiens) (P35372 whole entry): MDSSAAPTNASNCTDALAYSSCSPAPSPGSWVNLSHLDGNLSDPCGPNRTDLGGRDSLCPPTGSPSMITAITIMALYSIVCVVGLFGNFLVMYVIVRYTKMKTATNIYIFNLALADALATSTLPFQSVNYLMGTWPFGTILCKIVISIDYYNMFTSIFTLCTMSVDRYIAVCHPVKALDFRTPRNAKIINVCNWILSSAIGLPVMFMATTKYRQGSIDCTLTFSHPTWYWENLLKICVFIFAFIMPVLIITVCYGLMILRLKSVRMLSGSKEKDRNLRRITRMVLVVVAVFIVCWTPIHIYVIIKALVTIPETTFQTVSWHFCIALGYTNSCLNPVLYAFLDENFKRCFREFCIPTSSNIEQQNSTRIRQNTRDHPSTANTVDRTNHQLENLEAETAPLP

[26] = target: T1, 5-hydroxytryptamine receptor 1A (Homo sapiens) (UniProt P08908); assay: Inhibition of 5-HT1A receptor (unknown origin) at 50 uM by radioligand receptor binding assay relative to control
T1 sequence (whole entry): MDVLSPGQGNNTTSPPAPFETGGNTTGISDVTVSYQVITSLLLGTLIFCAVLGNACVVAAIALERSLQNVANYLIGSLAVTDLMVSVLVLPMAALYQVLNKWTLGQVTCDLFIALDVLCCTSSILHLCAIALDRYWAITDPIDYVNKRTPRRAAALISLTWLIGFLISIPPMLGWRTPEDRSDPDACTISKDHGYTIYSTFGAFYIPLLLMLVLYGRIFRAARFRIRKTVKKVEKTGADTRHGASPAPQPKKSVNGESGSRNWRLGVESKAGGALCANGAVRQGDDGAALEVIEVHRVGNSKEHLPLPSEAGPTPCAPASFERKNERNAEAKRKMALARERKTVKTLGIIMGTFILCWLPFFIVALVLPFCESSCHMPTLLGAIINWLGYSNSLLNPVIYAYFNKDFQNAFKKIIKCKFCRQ

[27] = target: 5-hydroxytryptamine receptor 2A (Homo sapiens) (UniProt P28223); assay: Inhibition of 5-HT2A receptor (unknown origin) at 50 uM by radioligand receptor binding assay relative to control
Sequence of 5-hydroxytryptamine receptor 2A (Homo sapiens) (P28223 whole entry): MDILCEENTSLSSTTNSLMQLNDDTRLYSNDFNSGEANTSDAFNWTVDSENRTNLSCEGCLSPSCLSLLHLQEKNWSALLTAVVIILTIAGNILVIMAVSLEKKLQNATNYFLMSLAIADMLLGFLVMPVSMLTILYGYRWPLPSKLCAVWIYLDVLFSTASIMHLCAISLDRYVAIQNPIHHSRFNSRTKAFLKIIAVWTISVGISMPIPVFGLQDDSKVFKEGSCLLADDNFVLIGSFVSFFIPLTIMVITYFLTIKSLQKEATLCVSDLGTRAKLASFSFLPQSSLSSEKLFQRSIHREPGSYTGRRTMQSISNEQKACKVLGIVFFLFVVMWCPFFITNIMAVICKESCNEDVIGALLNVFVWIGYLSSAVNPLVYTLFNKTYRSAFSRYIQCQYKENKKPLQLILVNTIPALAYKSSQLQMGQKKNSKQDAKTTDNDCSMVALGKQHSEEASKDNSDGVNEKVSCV

[28] = target: Sodium-dependent serotonin transporter (Homo sapiens) (UniProt P31645); assay: Inhibition of 5-HT transporter (unknown origin) at 50 uM by radioligand receptor binding assay relative to control
Sequence of Sodium-dependent serotonin transporter (Homo sapiens) (P31645 whole entry, looked up): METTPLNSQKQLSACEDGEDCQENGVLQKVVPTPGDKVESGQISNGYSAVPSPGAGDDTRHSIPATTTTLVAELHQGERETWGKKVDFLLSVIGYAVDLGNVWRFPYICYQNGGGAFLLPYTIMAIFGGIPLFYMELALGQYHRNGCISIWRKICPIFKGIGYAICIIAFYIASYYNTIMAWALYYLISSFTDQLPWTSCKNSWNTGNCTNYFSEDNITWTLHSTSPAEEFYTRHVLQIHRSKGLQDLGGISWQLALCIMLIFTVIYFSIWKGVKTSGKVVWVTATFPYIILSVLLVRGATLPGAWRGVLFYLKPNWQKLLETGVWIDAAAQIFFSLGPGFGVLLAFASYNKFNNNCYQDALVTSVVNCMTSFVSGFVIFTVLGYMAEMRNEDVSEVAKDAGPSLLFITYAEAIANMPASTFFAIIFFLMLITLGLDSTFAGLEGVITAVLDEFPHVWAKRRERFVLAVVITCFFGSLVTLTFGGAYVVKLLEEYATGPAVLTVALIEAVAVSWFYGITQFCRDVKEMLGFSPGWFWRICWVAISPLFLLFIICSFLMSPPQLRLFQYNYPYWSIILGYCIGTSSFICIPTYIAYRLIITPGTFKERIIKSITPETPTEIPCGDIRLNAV

[29] = target: Sodium-dependent noradrenaline transporter (Homo sapiens) (UniProt P23975); assay: Inhibition of Noradrenaline receptor (unknown origin) at 50 uM by radioligand receptor binding assay relative to control
Sequence of Sodium-dependent noradrenaline transporter (Homo sapiens) (P23975 whole entry): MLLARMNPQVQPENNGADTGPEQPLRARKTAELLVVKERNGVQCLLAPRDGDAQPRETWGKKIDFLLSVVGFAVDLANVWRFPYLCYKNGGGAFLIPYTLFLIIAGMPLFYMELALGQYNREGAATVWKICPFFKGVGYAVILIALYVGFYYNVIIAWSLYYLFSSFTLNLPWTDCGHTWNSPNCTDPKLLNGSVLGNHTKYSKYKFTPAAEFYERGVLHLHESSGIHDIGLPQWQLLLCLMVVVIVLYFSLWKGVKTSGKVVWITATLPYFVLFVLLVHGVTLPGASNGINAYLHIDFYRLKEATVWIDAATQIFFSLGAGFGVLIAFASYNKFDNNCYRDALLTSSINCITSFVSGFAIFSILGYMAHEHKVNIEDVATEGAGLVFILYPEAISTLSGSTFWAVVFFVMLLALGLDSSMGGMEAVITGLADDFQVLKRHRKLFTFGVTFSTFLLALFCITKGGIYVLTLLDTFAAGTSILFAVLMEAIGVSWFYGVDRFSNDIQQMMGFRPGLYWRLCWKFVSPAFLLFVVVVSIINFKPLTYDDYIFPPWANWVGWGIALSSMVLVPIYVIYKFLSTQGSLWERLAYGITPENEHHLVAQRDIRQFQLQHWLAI

[30] = target: Glutamate [NMDA] receptor (Homo sapiens) (UniProt Q05586+Q12879+Q13224+O15399+O60391+Q14957+Q8TCU5); assay: Inhibition of NMDA receptor (unknown origin) at 50 uM by radioligand receptor binding assay relative to control; assay type: protein-complex assay
[31] = target: Cannabinoid receptor 1 (Homo sapiens) (UniProt P21554); assay: Inhibition of CB1 receptor (unknown origin) at 50 uM by radioligand receptor binding assay relative to control
Sequence of Cannabinoid receptor 1 (Homo sapiens) (P21554 whole entry): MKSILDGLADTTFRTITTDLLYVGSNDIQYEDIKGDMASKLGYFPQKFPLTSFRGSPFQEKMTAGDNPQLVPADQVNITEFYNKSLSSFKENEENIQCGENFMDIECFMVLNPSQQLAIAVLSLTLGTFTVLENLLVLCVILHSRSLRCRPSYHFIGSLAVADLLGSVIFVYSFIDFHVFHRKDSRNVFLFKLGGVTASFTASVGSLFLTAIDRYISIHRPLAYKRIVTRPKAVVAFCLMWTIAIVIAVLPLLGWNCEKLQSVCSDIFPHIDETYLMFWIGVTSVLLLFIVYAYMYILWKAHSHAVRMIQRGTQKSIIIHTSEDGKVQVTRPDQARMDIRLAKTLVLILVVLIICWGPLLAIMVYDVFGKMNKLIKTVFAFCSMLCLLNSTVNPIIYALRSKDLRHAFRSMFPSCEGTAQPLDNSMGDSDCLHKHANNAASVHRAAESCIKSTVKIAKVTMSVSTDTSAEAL

[32] = target: Cannabinoid receptor 2 (Homo sapiens) (UniProt P34972); assay: Inhibition of CB2 receptor (unknown origin) at 50 uM by radioligand receptor binding assay relative to control
Sequence of Cannabinoid receptor 2 (Homo sapiens) (P34972 whole entry): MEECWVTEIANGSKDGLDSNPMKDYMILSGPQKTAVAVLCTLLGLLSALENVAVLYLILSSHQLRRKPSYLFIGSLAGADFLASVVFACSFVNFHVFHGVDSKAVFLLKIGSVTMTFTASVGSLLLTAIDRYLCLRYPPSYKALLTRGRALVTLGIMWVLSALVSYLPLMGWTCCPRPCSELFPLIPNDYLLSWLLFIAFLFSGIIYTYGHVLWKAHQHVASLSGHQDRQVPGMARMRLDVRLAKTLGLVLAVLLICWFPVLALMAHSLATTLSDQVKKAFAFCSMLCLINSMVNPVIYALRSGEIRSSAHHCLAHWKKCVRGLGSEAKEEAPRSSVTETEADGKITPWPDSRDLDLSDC

[33] = target: T2, Alpha-2A adrenergic receptor (Homo sapiens) (UniProt P08913); assay: Inhibition of adrenergic alpha 2A receptor (unknown origin) at 50 uM by radioligand receptor binding assay relative to control
T2 sequence (whole entry): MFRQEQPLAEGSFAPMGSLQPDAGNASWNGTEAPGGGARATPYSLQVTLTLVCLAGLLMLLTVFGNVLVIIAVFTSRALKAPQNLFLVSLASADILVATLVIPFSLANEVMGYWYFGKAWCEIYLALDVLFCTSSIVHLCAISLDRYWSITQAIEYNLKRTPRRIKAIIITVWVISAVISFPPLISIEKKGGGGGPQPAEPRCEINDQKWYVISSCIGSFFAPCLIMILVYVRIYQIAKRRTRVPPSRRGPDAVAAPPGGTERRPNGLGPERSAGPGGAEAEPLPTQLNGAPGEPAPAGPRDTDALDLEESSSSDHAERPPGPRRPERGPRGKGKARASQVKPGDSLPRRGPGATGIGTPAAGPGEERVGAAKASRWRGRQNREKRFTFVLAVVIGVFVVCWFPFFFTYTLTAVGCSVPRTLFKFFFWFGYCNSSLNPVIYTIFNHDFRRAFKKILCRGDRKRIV

SMILES: CCOc1cc(CC(=O)OC(C)C)ccc1OCC(=O)N1CCN(c2cccc(C(F)(F)F)c2)CC1
- logP [1]: 4.4
- HD50 (median hypnotic dose) [2]: 31.6 mg/kg
- LD50 [3]: 163 mg/kg
- selectivity ratio [4]: 5.1
- inhibition [5]: 54.7%

SMILES: CCOc1cc(CC(=O)OCC(F)(F)F)ccc1OCC(=O)N1CCN(c2cccc(C(F)(F)F)c2)CC1
- logP [1]: 4.7
- HD50 (median hypnotic dose) [2]: 31.2 mg/kg
- LD50 [3]: 198 mg/kg
- selectivity ratio [4]: 6.3
- inhibition [5]: 38.8%

SMILES: CCOc1cc(CC(=O)OCC(F)(F)F)ccc1OCC(=O)N1CCN(c2ccccc2)CC1
- logP [1]: 3.8
- HD50 (median hypnotic dose) [2]: 24.8 mg/kg
- LD50 [3]: 193 mg/kg
- selectivity ratio [4]: 7.8
- Time [6]: 7.1 s
- Time [7]: 76.5 s
- Time [8]: 44.9 s
- inhibition [5]: 70.6%

SMILES: CCOC(=O)Cc1ccc(OCC(=O)N2CCN(c3cccc(C(F)(F)F)c3)CC2)c(OCC)c1
- logP [1]: 4.1
- HD50 (median hypnotic dose) [2]: 42.5 mg/kg
- LD50 [3]: 289 mg/kg
- selectivity ratio [4]: 6.8
- inhibition [5]: 44.4%

SMILES: CCCOC(=O)Cc1ccc(OCC(=O)N2CCN(c3cccc(Cl)c3Cl)CC2)c(OCC)c1
- logP [1]: 4.7
- HD50 (median hypnotic dose) [2]: 38.6 mg/kg
- LD50 [3]: 201 mg/kg
- selectivity ratio [4]: 5.2
- inhibition [5]: 33.3%

SMILES: COc1cc(CC(=O)OCC(F)(F)F)ccc1OCC(=O)N1CCN(c2ccccc2)CC1
- logP [1]: 3.4
- HD50 (median hypnotic dose) [2]: 30.8 mg/kg
- LD50 [3]: 200 mg/kg
- selectivity ratio [4]: 6.5
- inhibition [5]: 29.9%

SMILES: CCOC(=O)Cc1ccc(OCC(=O)N2CCN(c3ccccc3)CC2)c(OCC)c1
- logP [1]: 3.1
- HD50 (median hypnotic dose) [2]: 30.6 mg/kg
- LD50 [3]: 208 mg/kg
- selectivity ratio [4]: 6.8
- inhibition [5]: 22.1%

SMILES: CCCOC(=O)Cc1ccc(OCC(=O)N2CCN(c3ccccc3)CC2)c(OCC)c1
- logP [1]: 3.6
- HD50 (median hypnotic dose) [2]: 25 mg/kg
- LD50 [3]: 200 mg/kg
- selectivity ratio [4]: 8
- Time [6]: 6.4 s
- Time [7]: 83.3 s
- Time [8]: 38.6 s
- EC50 [9]: 7.1 mg/kg
- LD50 [10]: 72.9 mg/kg
- selectivity ratio [11]: 10.3
- EC50 [12]: 5.2 mg/kg
- LD50 [13]: 93.9 mg/kg
- selectivity ratio [14]: 18.1
- Time [15]: 9.6 s
- Time [16]: 92.4 s
- Time [17]: 33.4 s
- Time [18]: 14.5 s
- Time [19]: 292.9 s
- Time [20]: 81.7 s
- inhibition [5]: 89.8%
- inhibition [21]: 9.1%
- inhibition [22]: 7.5%
- inhibition [23]: 1.2%
- inhibition [24]: 2.9%
- inhibition [25]: 4.6%
- inhibition [26]: 15.2%
- inhibition [27]: 11.9%
- inhibition [28]: 1.9%
- inhibition [29]: 11.5%
- inhibition [30]: 4.3%
- inhibition [31]: 10.8%
- inhibition [32]: 12.6%
- inhibition [33]: 5.8%

SMILES: CCOc1cc(CC(=O)OC(C)C)ccc1OCC(=O)N1CCN(c2ccccc2)CC1
- logP [1]: 3.5
- HD50 (median hypnotic dose) [2]: 36.8 mg/kg
- LD50 [3]: 265 mg/kg
- selectivity ratio [4]: 7.2
- inhibition [5]: 54.2%

SMILES: CCCOC(=O)Cc1ccc(OCC(=O)N2CCN(c3ccccc3)CC2)c(OC)c1
- logP [1]: 3.3
- HD50 (median hypnotic dose) [2]: 33.2 mg/kg
- LD50 [3]: 190 mg/kg
- selectivity ratio [4]: 5.7
- inhibition [5]: 35.6%
